ChEMBL document CHEMBL1134330, “Synthesis, in vitro pharmacology, and molecular modeling of syn-huprines as acetylcholinesterase inhibitors” (J Med Chem, 2001)

Legend:
Acetylcholinesterase [1] = target: Acetylcholinesterase (Homo sapiens, UniProt P22303); assay: In vitro inhibitory concentration against acetylcholinesterase of human erythrocytes
Cholinesterase = Cholinesterase (Homo sapiens, UniProt P06276)
Description: In vitro inhibitory concentration against BChE of human serum

Acetylcholinesterase [2] = target: T1, Acetylcholinesterase (Bos taurus, UniProt P23795)
T1 sequence (P23795 whole entry): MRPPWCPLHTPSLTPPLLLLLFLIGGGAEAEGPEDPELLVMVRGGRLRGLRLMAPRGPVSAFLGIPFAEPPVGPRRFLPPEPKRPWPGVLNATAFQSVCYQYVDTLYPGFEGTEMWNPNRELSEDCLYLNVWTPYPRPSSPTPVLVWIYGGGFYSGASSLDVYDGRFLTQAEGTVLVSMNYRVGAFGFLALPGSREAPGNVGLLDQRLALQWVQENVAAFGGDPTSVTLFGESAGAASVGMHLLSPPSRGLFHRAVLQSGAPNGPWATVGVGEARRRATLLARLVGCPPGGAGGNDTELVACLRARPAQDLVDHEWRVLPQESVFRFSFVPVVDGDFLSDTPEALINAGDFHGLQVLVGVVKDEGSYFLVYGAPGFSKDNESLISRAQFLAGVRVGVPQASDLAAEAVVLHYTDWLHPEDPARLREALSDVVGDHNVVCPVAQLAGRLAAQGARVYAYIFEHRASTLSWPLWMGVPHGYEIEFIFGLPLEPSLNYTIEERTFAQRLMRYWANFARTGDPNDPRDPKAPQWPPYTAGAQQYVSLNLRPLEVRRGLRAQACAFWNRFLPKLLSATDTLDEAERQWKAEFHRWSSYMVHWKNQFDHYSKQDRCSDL
Description: In vitro inhibitory concentration against bovine acetylcholinesterase enzyme

Sequence of Acetylcholinesterase (Homo sapiens, UniProt P22303) (P22303 whole entry): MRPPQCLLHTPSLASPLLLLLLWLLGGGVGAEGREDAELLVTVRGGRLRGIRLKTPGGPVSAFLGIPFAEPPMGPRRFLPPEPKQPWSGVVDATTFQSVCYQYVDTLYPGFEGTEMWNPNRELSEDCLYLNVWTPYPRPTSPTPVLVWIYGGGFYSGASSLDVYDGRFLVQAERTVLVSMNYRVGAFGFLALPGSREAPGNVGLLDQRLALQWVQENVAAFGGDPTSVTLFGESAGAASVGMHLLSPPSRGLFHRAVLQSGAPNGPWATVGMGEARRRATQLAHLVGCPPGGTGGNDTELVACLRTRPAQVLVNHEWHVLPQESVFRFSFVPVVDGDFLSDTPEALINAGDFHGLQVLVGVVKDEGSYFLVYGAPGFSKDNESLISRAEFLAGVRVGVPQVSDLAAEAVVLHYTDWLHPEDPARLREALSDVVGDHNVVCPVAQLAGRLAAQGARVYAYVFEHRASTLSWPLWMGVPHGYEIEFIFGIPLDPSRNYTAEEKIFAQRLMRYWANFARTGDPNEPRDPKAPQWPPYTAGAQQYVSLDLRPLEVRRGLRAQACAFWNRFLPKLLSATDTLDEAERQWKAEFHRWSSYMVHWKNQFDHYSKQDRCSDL
Sequence of Cholinesterase (P06276 whole entry): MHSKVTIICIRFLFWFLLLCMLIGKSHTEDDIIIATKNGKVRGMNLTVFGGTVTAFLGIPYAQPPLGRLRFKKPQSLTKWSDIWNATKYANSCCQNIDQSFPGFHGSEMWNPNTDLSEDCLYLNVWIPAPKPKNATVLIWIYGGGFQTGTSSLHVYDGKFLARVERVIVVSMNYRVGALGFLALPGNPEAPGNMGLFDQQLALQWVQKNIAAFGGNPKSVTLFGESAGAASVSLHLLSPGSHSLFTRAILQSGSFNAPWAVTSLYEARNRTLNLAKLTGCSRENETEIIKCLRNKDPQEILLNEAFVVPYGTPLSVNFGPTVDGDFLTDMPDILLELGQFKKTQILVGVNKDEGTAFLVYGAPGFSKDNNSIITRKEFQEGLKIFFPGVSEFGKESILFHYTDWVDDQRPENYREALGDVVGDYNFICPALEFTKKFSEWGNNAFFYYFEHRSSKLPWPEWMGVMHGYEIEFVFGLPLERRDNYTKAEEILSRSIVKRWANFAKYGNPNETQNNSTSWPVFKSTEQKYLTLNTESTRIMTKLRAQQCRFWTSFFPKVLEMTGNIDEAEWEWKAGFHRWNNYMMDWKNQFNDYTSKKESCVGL

Row | Structure (SMILES) | IC50 (Acetylcholinesterase [1]) [nM] | IC50 (Cholinesterase) [nM] | IC50 (Acetylcholinesterase [2]) [nM]
1 | CC1=CC2CC(C1)Cc1nc3ccccc3c(N)c12 (racemic) | 436 | 148 | 
2 | CCC1=CC2CC(C1)Cc1nc3ccccc3c(N)c12 (racemic) | 76.9 | 63 | 165
3 | CC1=CC2Cc3nc4ccccc4c(N)c3C(C1)C2 (racemic) | 51.6 |  | 
4 | CCC1=CC2Cc3nc4ccccc4c(N)c3C(C1)C2 (racemic) | 37.8 |  | 
